Experimental data reported in patent US20240066136A1, “MODIFIED PROTEINS AND PROTEIN DEGRADERS” (Cullgen (Shanghai), Inc., priority 2020, published 2024).
Like-named read-outs stand apart in the source and are kept apart here. Each block holds one compound with its values, some of them ahead of it. Ends that are not written are not given here.

Columns and labels:
Human DDB1 = Human DDB1 (Homo sapiens (Human), UniProt Q16531); assay: Surface plasmon resonance (SPR) binding assay to immobilized His-DDB1
Human DDB1, sequence (Q16531 whole entry): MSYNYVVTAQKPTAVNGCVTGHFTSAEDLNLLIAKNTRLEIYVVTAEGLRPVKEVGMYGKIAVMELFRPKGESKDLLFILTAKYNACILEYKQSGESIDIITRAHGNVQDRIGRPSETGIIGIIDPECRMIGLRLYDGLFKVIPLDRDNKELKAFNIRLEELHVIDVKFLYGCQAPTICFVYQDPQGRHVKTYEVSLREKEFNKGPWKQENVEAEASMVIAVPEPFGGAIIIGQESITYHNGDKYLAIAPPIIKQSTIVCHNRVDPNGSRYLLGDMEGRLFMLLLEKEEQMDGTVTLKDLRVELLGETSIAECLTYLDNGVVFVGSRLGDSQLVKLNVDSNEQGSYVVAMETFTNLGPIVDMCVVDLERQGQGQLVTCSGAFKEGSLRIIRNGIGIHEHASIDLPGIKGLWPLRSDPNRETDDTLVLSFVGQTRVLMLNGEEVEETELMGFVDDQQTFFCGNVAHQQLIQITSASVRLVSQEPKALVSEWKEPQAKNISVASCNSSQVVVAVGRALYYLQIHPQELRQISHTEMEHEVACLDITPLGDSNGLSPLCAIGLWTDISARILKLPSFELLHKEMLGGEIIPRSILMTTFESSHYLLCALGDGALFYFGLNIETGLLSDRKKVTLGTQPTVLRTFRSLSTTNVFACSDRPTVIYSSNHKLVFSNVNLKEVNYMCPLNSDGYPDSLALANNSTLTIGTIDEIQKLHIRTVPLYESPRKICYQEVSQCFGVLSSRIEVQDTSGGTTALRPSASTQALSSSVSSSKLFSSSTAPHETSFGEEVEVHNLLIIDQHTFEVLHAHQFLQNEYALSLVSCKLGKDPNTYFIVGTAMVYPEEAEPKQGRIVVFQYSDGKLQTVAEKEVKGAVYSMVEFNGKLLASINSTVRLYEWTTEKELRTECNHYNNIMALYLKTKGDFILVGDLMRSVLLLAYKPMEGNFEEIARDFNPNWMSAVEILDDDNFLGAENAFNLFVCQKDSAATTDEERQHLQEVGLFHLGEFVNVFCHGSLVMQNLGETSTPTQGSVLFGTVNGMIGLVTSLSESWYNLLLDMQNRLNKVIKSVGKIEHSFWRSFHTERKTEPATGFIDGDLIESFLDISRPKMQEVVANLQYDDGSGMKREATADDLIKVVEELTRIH
Summary of the method: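 Baculovirus-expressed His-DDB1 (High5 cells) amine-coupled to 11,000–13,000 RU on a CM5 chip; compounds injected in multi-cycle format without regeneration at 25° C in HBS-EP pH 7.4 (120 s association/dissociation). Double-referenced, solvent-corrected data fit to steady-state affinity model for KD.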

CDK4 = CDK4 (Homo sapiens (Human), UniProt P11802); assay: Immunoblot of CDK4 protein in Calu-1 cells; type: cell-based; conditions: indicated concentrations, 16 hours, immunoblot
CDK4, sequence (P11802 whole entry): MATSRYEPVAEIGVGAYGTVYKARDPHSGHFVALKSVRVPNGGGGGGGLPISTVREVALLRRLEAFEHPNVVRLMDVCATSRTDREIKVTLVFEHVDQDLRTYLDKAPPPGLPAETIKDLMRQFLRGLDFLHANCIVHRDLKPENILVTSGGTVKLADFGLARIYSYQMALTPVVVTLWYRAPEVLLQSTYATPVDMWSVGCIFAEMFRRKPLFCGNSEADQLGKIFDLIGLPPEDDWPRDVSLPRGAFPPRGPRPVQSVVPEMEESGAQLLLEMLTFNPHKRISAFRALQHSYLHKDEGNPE
Procedure: Additional heterobifunctional compounds were designed and tested for their ability to target and degrade another two target proteins, CDK4 and CDK6. Calu-1 cells that express CDK4/6 proteins were treated with heterobifunctional compounds disclosed herein (D-44 to D-49) at indicated concentrations for 16 hours. Cells were collected, lysed and subject to immunoblotting using an antibody specific to CDK4, CDK6 or phosphorylated Rb proteins. Tubulin was included as the loading control. DMSO treatment was used as the negative control. […] In addition, Calu-1 cells were treated with 1 μM D-48 or D-49 for an indicated period of time. Subsequently, changes in CDK4 and CDK6 protein levels were measured by immunoblotting. […] These experiments highlight the ability of DDB1 binder derived heterobifunctional compounds to degrade multiple different target proteins, including but not limited to epigenetic target proteins, such as CBP and p300, and kinases, such as CDK4 and CDK6.

CBP = CBP (Homo sapiens (Human), UniProt Q92793); assay: Immunoblot of CBP protein in LNCaP cells after compound treatment; type: cell-based
Procedure: (§1) Experiments were performed to see if heterobifunctional compounds as described herein could degrade target proteins. Specific exemplary heterobifunctional compounds were characterized in LNCaP and Calu-1 cells. LNCaP cells that express P300/CBP proteins were treated with heterobifunctional compounds disclosed herein (D-2, D-13, or D-7) at indicated concentrations for 8 hours. Cells were collected, lysed and subject to immunoblotting using an antibody specific to P300 or CBP proteins. Vinculin was included as the loading control. DMSO treatment was used as the negative control. […] In addition, LNCaP cells were treated with 500 nM of D-2, or D-13 for indicated period of time. Subsequently, changes in P300 and CBP protein levels were measured by immunoblotting.

P300 [1] = target: T1, P300 (Homo sapiens (Human), UniProt Q09472); assay: Immunoblot of P300 in Calu-1 cells with co-administered proteasome, neddylation or DDB1-ligand competitor; type: cell-based
T1 sequence (Q09472 whole entry): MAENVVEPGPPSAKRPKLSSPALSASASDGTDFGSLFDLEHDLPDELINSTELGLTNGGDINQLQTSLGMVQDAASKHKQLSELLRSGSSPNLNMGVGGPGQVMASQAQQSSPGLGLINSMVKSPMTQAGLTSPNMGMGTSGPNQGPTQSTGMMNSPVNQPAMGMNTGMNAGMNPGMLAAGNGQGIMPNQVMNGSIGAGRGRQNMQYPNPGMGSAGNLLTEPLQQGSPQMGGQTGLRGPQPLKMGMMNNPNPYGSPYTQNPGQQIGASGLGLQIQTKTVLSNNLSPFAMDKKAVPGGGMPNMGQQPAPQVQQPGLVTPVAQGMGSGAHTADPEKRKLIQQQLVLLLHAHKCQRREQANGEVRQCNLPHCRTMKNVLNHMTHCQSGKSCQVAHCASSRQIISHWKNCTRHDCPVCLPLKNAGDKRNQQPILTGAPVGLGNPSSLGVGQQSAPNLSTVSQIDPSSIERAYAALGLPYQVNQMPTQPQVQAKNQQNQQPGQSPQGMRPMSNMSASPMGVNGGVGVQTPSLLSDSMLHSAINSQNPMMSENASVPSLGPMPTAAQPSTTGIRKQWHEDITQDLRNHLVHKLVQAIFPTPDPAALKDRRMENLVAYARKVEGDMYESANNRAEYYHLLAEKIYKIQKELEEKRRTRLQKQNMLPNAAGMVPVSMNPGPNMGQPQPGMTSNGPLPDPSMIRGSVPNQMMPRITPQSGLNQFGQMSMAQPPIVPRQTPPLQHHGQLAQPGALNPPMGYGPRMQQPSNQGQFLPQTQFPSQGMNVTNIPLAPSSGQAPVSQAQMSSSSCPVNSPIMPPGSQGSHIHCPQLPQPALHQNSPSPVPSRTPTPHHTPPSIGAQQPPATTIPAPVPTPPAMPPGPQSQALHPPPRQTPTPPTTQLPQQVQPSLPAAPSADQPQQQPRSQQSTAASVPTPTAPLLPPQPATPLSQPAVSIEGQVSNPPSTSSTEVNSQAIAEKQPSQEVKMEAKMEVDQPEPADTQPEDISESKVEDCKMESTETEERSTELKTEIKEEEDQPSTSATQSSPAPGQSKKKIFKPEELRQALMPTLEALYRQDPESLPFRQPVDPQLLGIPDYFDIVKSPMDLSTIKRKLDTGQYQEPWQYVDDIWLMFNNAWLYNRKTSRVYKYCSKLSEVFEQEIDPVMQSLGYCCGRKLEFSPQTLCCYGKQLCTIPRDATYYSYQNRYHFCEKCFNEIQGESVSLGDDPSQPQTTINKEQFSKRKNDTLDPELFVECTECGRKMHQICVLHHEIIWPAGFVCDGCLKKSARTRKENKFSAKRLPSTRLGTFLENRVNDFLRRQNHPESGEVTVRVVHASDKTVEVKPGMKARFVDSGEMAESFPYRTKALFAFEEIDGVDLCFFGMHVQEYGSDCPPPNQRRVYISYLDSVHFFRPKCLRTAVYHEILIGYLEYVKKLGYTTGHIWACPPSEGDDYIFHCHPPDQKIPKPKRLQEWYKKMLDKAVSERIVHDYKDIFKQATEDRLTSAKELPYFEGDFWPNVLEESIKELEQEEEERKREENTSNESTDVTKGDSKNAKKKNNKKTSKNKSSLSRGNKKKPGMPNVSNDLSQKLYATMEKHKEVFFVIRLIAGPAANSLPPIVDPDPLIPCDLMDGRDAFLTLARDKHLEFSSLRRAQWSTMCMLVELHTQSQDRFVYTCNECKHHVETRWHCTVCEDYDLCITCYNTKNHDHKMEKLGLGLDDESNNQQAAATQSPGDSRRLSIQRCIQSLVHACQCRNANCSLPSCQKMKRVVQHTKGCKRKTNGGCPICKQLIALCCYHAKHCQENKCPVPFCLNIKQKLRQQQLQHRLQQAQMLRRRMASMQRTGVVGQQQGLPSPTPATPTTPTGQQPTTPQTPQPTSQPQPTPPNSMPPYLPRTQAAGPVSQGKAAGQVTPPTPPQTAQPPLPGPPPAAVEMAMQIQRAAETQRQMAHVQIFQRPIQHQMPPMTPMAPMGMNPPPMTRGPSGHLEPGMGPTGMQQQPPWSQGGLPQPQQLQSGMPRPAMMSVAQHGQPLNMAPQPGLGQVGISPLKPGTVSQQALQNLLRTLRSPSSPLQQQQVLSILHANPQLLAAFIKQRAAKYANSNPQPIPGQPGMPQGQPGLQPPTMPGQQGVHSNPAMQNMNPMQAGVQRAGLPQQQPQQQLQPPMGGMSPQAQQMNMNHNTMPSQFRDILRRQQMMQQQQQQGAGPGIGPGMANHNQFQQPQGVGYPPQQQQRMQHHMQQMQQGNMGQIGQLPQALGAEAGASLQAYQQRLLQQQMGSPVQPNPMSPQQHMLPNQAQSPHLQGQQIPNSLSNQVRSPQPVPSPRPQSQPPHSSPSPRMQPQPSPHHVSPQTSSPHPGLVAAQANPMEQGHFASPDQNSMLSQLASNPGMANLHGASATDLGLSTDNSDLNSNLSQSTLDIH
From the text: The heterobifunctional compound-mediated p300 and CBP degradation was dependent on the ubiquitin-proteasome system and cullin E3 ligase. […] The binding with DDB1 also played a role in the heterobifunctional compounds ability to induce degradation of P300 and CBP proteins.

P300 [2] = target: T1, P300; assay: Immunoblot of P300 protein in LNCaP cells after compound treatment; type: cell-based
Procedure: as §1

MDAMB-453 = assay: Cell viability assay (CellTiter-Glo); type: cell-based; conditions: Homo sapiens, MDA-MB-453, 120 h; MDAMB-453, 5 days
Procedure: (§2) Calu-1, MDA-MB-453 or MIA PaCa-2 cancer cells were treated with Palbociclib or selected heterobifunctional compounds for 5 days at indicated concentrations following a 2-fold serial dilution.
(§3) A variety of cancer cell lines were treated with Palbociclib or selected heterobifunctional compounds for 5 days at indicated concentrations in FIG. 12.
(§4) Cell Culture. LNCaP (clone FGC), Calu-1, MDA-MB-468, MDA-MB-453, NCI-H358, HCC1937, BT-549, HCT116, A375, SK-MEL-28, SK-N-SH, MIA PaCa-2, HS 578T, HCC827, MIA PaCa-2, and other cells were cultured at 37° C. with 5% CO2 in DMEM or RPMI 1640 Medium supplemented with 10% fetal bovine serum. Cells were authenticated using the short tandem repeat (STR) assays. Mycoplasma test results were negative.
(§5) Cell viability assay. Cells were seeded at a density of 5000 cells per well in 96-well assay plates and treated with test compounds following a 11-point 3-fold serial dilution for 3-5 days. Three days later, cell viability was determined using the CellTiter-Glo Assay Kit according to the manufacturer's instructions. The dose-response curves were determined and IC50 values were calculated using the GraphPad Prism software following a nonlinear regression (least squares fit) method.

Calu-1 = assay: Cell viability assay (CellTiter-Glo); type: cell-based; conditions: Homo sapiens, 120 h; Calu-1, 5 days
Procedure: as §2, §3, §4, §5

MIA PaCa-2 = assay: Cell viability assay (CellTiter-Glo); type: cell-based; conditions: Homo sapiens, 120 h; MIA PaCa-2, 5 days
Procedure: as §2, §3, §4, §5

NCI-H358 = assay: Cell viability assay (CellTiter-Glo); type: cell-based; conditions: Homo sapiens, 120 h; NCI-H358, 5 days
Procedure: as §3, §4, §5

A375 = assay: Cell viability assay (CellTiter-Glo); type: cell-based; conditions: Homo sapiens, A-375, 120 h; A375, 5 days
Procedure: as §3, §4, §5

MDAMB-468 = assay: Cell viability assay (CellTiter-Glo); type: cell-based; conditions: Homo sapiens, MDA-MB-468, 120 h; MDAMB-468, 5 days
Procedure: as §3, §4, §5

Hs 578T = assay: Cell viability assay (CellTiter-Glo); type: cell-based; conditions: Homo sapiens, 120 h, 5 days
Procedure: as §3, §4, §5

HCC827 = assay: Cell viability assay (CellTiter-Glo); type: cell-based; conditions: Homo sapiens, 120 h; HCC827, 5 days
Procedure: as §3, §4, §5

HCC1937 = assay: Cell viability assay (CellTiter-Glo); type: cell-based; conditions: Homo sapiens, 120 h; HCC1937, 5 days
Procedure: as §3, §4, §5

SK-MEL-28 = assay: Cell viability assay (CellTiter-Glo); type: cell-based; conditions: Homo sapiens, 120 h; SK-MEL-28, 5 days
Procedure: as §3, §4, §5

BT-549 = assay: Cell viability assay (CellTiter-Glo); type: cell-based; conditions: Homo sapiens, 120 h; BT-549, 5 days
Procedure: as §3, §4, §5

SK-N-SH = assay: Cell viability assay (CellTiter-Glo); type: cell-based; conditions: Homo sapiens, 120 h, 5 days
Procedure: as §3, §4, §5

HCT116 = assay: Cell viability assay (CellTiter-Glo); type: cell-based; conditions: Homo sapiens, HCT-116, 120 h; HCT116, 5 days
Procedure: as §3, §4, §5

[3] = SPR, DDB1 binding moieties with linkers and/or target protein binding moiety, read-out: Binding (Kd)
[4] = indicated concentrations, 8 hours, immunoblot

Compound: CC(=O)Nc1cc(NCCCCN)ccc1C(=O)Nc1nc(C)c([N+](=O)[O-])s1 [BL-11, 2-Acetamido-4-((4-aminobutyl)amino)-N-(4-methyl-5-nitrothiazol-2-yl)benzamide]
Kd (Human DDB1; [3]): 20 to 100 µM | CDK4 protein levels (CDK4): didn't have a significant effect

Compound: CC(=O)Nc1cc(NCCOCCOCCOCCOCCNC(=O)C[C@@H]2N=C(c3ccc(Cl)cc3)c3c(sc(C)c3C)-n3c(C)nnc32)ccc1C(=O)Nc1nc(C)c([N+](=O)[O-])s1 [D-35, (S)-2-Acetamido-4-((1-(4-(4-chlorophenyl)-2,3,9-trimethyl-6H-thieno[3,2-f][1,2,4]triazolo[4,3-a][1,4]diazepin-6-yl)-2-oxo-6,9,12,15-tetraoxa-3-azaheptadecan-17-yl)amino)-N-(4-methyl-5-nitrothiazol-2-yl)benzamide]
Kd (Human DDB1; [3]): 20 to 100 µM

Compound: CC(=O)Nc1cc(NCCOCCOCCNC(=O)CN2CCN(c3ccc(Nc4ncc5c(C)c(C(C)=O)c(=O)n(C6CCCC6)c5n4)nc3)CC2)ccc1C(=O)Nc1nc(C)c([N+](=O)[O-])s1 [D-45, 2-Acetamido-4-((2-(2-(2-(2-(4-(6-((6-acetyl-8-cyclopentyl-5-methyl-7-oxo-7,8-dihydropyrido[2,3-d]pyrimidin-2-yl)amino)pyridin-3-yl)piperazin-1-yl)acetamido)ethoxy)ethoxy)ethyl)amino)-N-(4-methyl-5-nitrothiazol-2-yl)benzamide]
Kd (Human DDB1; [3]): < 20 µM

Compound: CC(=O)c1c(C)c2cnc(Nc3ccc(N4CCNCC4)cn3)nc2n(C2CCCC2)c1=O [palbociclib, reference compound]
IC50 (MDAMB-453): > 10 µM | IC50 (Calu-1): > 10 µM | IC50 (MIA PaCa-2): 2 to 10 µM | IC50 (NCI-H358): > 10 µM | IC50 (A375): 2 to 10 µM | IC50 (MDAMB-468): > 10 µM | IC50 (Hs 578T): 2 to 10 µM | IC50 (HCC827): > 10 µM | IC50 (HCC1937): > 10 µM | IC50 (SK-MEL-28): 2 to 10 µM | IC50 (BT-549): > 10 µM | IC50 (SK-N-SH): > 10 µM | IC50 (HCT116): > 10 µM | CDK4 protein levels (CDK4): didn't have a significant effect

Compound: SRLNRRASF [Peptide 7]
Kd (Human DDB1): 20 to 100 µM

Second part, led by results:

time at which significant degradation of CBP was detected (CBP; 500 nM, time course): 2 to 4 h | compound-induced degradation under co-administration of MG-132 or bortezomib (BTZ), or MLN4924 (P300 [1]): compromised | compound-mediated degradation under co-administration with excess DDB1 ligand BL-11 (P300 [1]): partially neutralized | Kd (Human DDB1; [3]): 20 to 100 µM | time at which significant degradation of P300 was detected (P300 [2]; 500 nM, time course): 2 to 4 h
Compound: CC(=O)Nc1cc(NCCCCNC(=O)CN2CCC(n3nc(N4CCCc5cc(-c6cnn(C)c6)c(C(F)F)cc54)c4c3CCN(C(C)=O)C4)CC2)ccc1C(=O)Nc1ccc([N+](=O)[O-])s1 [D-13, 2-Acetamido-4-((4-(2-(4-(5-acetyl-3-(7-(difluoromethyl)-6-(1-methyl-1H-pyrazol-4-yl)-3,4-dihydroquinolin-1 (2H)-yl)-4,5,6,7-tetrahydro-1H-pyrazolo[4,3-c]pyridin-1-yl)piperidin-1-yl)acetamido)butyl)amino)-N-(5-nitrothiophen-2-yl)benzamide]
CBP protein levels (CBP; [4]): significantly decreased in a concentration-dependent manner | P300 protein levels (P300 [2]; [4]): significantly decreased in a concentration-dependent manner

Kd (Human DDB1; [3]): 20 to 100 µM
Compound: CC(=O)Nc1cc(NCCCCCCCNC(=O)C[C@@H]2N=C(c3ccc(Cl)cc3)c3c(sc(C)c3C)-n3c(C)nnc32)ccc1C(=O)Nc1nc(C)c([N+](=O)[O-])s1 [D-29, (S)-2-Acetamido-4-((7-(2-(4-(4-chlorophenyl)-2,3,9-trimethyl-6H-thieno[3,2-f][1,2,4]triazolo[4,3-a][1,4]diazepin-6-yl)acetamido)heptyl)amino)-N-(4-methyl-5-nitrothiazol-2-yl)benzamide]

Kd (Human DDB1; [3]): 20 to 100 µM
Compound: CC(=O)Nc1cc(NCCCCCCCCCCNC(=O)C[C@@H]2N=C(c3ccc(Cl)cc3)c3c(sc(C)c3C)-n3c(C)nnc32)ccc1C(=O)Nc1nc(C)c([N+](=O)[O-])s1 [D-31, (S)-2-Acetamido-4-((10-(2-(4-(4-chlorophenyl)-2,3,9-trimethyl-6H-thieno[3,2-f][1,2,4]triazolo[4,3-a][1,4]diazepin-6-yl)acetamido)decyl)amino)-N-(4-methyl-5-nitrothiazol-2-yl)benzamide]

Kd (Human DDB1; [3]): 20 to 100 µM
Compound: CC(=O)Nc1cc(NCCOCCNC(=O)C[C@@H]2N=C(c3ccc(Cl)cc3)c3c(sc(C)c3C)-n3c(C)nnc32)ccc1C(=O)Nc1nc(C)c([N+](=O)[O-])s1 [D-32, (S)-2-Acetamido-4-((2-(2-(2-(4-(4-chlorophenyl)-2,3,9-trimethyl-6H-thieno[3,2-f][1,2,4]triazolo[4,3-a][1,4]diazepin-6-yl)acetamido)ethoxy)ethyl)amino)-N-(4-methyl-5-nitrothiazol-2-yl)benzamide]

Kd (Human DDB1; [3]): 20 to 100 µM
Compound: CC(=O)Nc1cc(NCCOCCOCCOCCOCCOCCOCCNC(=O)C[C@@H]2N=C(c3ccc(Cl)cc3)c3c(sc(C)c3C)-n3c(C)nnc32)ccc1C(=O)Nc1nc(C)c([N+](=O)[O-])s1 [D-37, (S)-2-Acetamido-4-((1-(4-(4-chlorophenyl)-2,3,9-trimethyl-6H-thieno[3,2-f][1,2,4]triazolo[4,3-a][1,4]diazepin-6-yl)-2-oxo-6,9,12,15,18,21-hexaoxa-3-azatricosan-23-yl)amino)-N-(4-methyl-5-nitrothiazol-2-yl)benzamide]

Kd (Human DDB1; [3]): < 20 µM
Compound: CC(=O)Nc1cc(NCCOCCOCCOCCNC(=O)CN2CCN(c3ccc(Nc4ncc5c(C)c(C(C)=O)c(=O)n(C6CCCC6)c5n4)nc3)CC2)ccc1C(=O)Nc1nc(C)c([N+](=O)[O-])s1 [D-46, 2-Acetamido-4-((1-(4-(6-((6-acetyl-8-cyclopentyl-5-methyl-7-oxo-7,8-dihydropyrido[2,3-d]pyrimidin-2-yl)amino)pyridin-3-yl)piperazin-1-yl)-2-oxo-6,9,12-trioxa-3-azatetradecan-14-yl)amino)-N-(4-methyl-5-nitrothiazol-2-yl)benzamide]

Kd (Human DDB1; [3]): < 20 µM
Compound: CC(=O)Nc1cc(NCCOCCOCCOCCOCCNC(=O)CN2CCN(c3ccc(Nc4ncc5c(C)c(C(C)=O)c(=O)n(C6CCCC6)c5n4)nc3)CC2)ccc1C(=O)Nc1nc(C)c([N+](=O)[O-])s1 [D-47, 2-Acetamido-4-((1-(4-(6-((6-acetyl-8-cyclopentyl-5-methyl-7-oxo-7,8-dihydropyrido[2,3-d]pyrimidin-2-yl)amino)pyridin-3-yl)piperazin-1-yl)-2-oxo-6,9,12,15-tetraoxa-3-azaheptadecan-17-yl)amino)-N-(4-methyl-5-nitrothiazol-2-yl)benzamide]
